Laboratory results taken from ChEMBL document CHEMBL1201862, “PubChem BioAssay data set” (2004).
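Dose response: 5 concentrations. Exposure: 48 h. Format: 96-well plates. Endpoint: linear interpolation; highest concentration if not reached. At the GI50, growth is halved.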 Activity calls are given as the source filed them. Cut-off read from the data, not from the text of the source: active = GI50 up to about 1.1 µM and inactive = higher.

Assays:
Test in all cases: NCI-60 cell line screen, 48 h
A498 = system: A498
COLO 205 = system: COLO 205
OVCAR-8 = system: OVCAR-8
SK-MEL-2 = system: SK-MEL-2
Malme-3M = system: Malme-3M
IGROV-1 = system: IGROV-1
SNB-75 = system: SNB-75
A549 = system: A549
NCI-H23 = system: NCI-H23
NCI/ADR-RES = system: NCI/ADR-RES
BT-549 = system: BT-549
HCC 2998 = system: HCC 2998
ACHN = system: ACHN
SF-539 = system: SF-539
HOP-62 = system: HOP-62
UACC-62 = system: UACC-62
SF-268 = system: SF-268
U-251 = system: U-251
SF-295 = system: SF-295
SK-MEL-5 = system: SK-MEL-5
KM12 = system: KM12
DU-145 = system: DU-145
MCF7 = system: MCF7
CCRF-CEM = system: CCRF-CEM
HT-29 = system: HT-29
UO-31 = system: UO-31
SW-620 = system: SW-620
Hs-578T = system: Hs-578T
HCT-15 = system: HCT-15
HOP-92 = system: HOP-92
SR = system: SR
RXF 393 = system: RXF 393
UACC-257 = system: UACC-257
SK-MEL-28 = system: SK-MEL-28
OVCAR-4 = system: OVCAR-4
MDA-MB-231 = system: MDA-MB-231
SNB-19 = system: SNB-19
OVCAR-5 = system: OVCAR-5
PC-3 = system: PC-3
MDA-MB-435 = system: MDA-MB-435
NCI-H460 = system: NCI-H460
CAKI-1 = system: CAKI-1
T47D = system: T47D
M14 = system: M14
NCI-H226 = system: NCI-H226
MDA-N = system: MDA-N
OVCAR-3 = system: OVCAR-3
MOLT-4 = system: MOLT-4
TK-10 = system: TK-10
SN12C = system: SN12C
K562 = system: K562
NCI-H522 = system: NCI-H522
HCT-116 = system: HCT-116
RPMI-8226 = system: RPMI-8226
786-0 = system: 786-0
SK-OV-3 = system: SK-OV-3

## O=C(NNC(=S)Nc1ccccc1)c1cc(-c2ccccc2)nc2ccccc12
A498
  GI50: 11.5 µM (inactive)
COLO 205
  GI50: 15.7 µM (inactive)
OVCAR-8
  GI50: 22.3 µM (inactive)
SK-MEL-2
  GI50: 11.1 µM (inactive)
Malme-3M
  GI50: 23.3 µM (inactive)
IGROV-1
  GI50: 26.7 µM (inactive)
SNB-75
  GI50: 17.3 µM (inactive)
A549
  GI50: 16.7 µM (inactive)
NCI-H23
  GI50: 16.3 µM (inactive)
NCI/ADR-RES
  GI50: 17.4 µM (inactive)
BT-549
  GI50: 21.6 µM (inactive)
HCC 2998
  GI50: 15.5 µM (inactive)
ACHN
  GI50: 27.5 µM (inactive)
SF-539
  GI50: 21.4 µM (inactive)
HOP-62
  GI50: 15.7 µM (inactive)
UACC-62
  GI50: 15.6 µM (inactive)
SF-268
  GI50: 22.9 µM (inactive)
U-251
  GI50: 12.2 µM (inactive)
SF-295
  GI50: 13.1 µM (inactive)
SK-MEL-5
  GI50: 13.2 µM (inactive)
KM12
  GI50: 20.7 µM (inactive)
DU-145
  GI50: 17 µM (inactive)
MCF7
  GI50: 21.4 µM (inactive)
CCRF-CEM
  GI50: 12.4 µM (inactive)
HT-29
  GI50: 28.6 µM (inactive)
UO-31
  GI50: 15.2 µM (inactive)
SW-620
  GI50: 18.7 µM (inactive)
Hs-578T
  GI50: 25.1 µM (inactive)
HCT-15
  GI50: 13.9 µM
HOP-92
  GI50: 15.6 µM (inactive)
SR
  GI50: 13.6 µM (inactive)
RXF 393
  GI50: 19 µM (inactive)
UACC-257
  GI50: 19.1 µM (inactive)
SK-MEL-28
  GI50: 16.4 µM (inactive)
OVCAR-4
  GI50: 17.3 µM (inactive)
MDA-MB-231
  GI50: 20.1 µM (inactive)
SNB-19
  GI50: 22.8 µM (inactive)
OVCAR-5
  GI50: 18.1 µM (inactive)
PC-3
  GI50: 18.6 µM (inactive)
MDA-MB-435
  GI50: 16.5 µM (inactive)
NCI-H460
  GI50: 20.7 µM (inactive)
CAKI-1
  GI50: 30.1 µM (inactive)
T47D
  GI50: 7.4 µM (inactive)
M14
  GI50: 14.9 µM (inactive)
NCI-H226
  GI50: 23.6 µM (inactive)
MDA-N
  GI50: 18.2 µM (inactive)
OVCAR-3
  GI50: 11.1 µM (inactive)
MOLT-4
  GI50: 11.4 µM (inactive)
TK-10
  GI50: 22 µM (inactive)
SN12C
  GI50: 20.8 µM (inactive)
K562
  GI50: 17.4 µM (inactive)
NCI-H522
  GI50: 18.1 µM (inactive)
HCT-116
  GI50: 14.4 µM (inactive)
RPMI-8226
  GI50: 6.56 µM (inactive)
786-0
  GI50: 15.8 µM (inactive)
SK-OV-3
  GI50: 26.8 µM (inactive)
